Experimental data as given in ChEMBL document CHEMBL1144822, “Gymnastatins and dankastatins, growth inhibitory metabolites of a gymnascella species from a Halichondria sponge” (2008).
Converted amounts (≈) assume the structure as drawn.

How the values were obtained:
P388 = assay: Growth inhibition of mouse P388 cells; type: functional; conditions: read-out: ED50 (the source's name)
[1] = tested on: 39 human cancer cell line panel (Homo sapiens); assay: Growth inhibition of 39 human cancer cell line panel; conditions: read-out: Log10GI50 (converted)
[2] = Growth inhibition of human BSY1 cells; type: functional; conditions: BSY-1, read-out: Log10GI50 (converted)
MKN-7 = assay: Growth inhibition of human MKN7 cells; type: functional; conditions: read-out: Log10GI50 (converted)

Row | Compound | EC50 (P388) | GI50 [1] | GI50 [2] | GI50 (MKN-7)
1 | CCCCCC[C@@H](C)/C=C(C)/C=C/C(=O)N[C@H]1C[C@@]2(O)C=C(Cl)C(=O)[C@@H](Cl)[C@H]2O[C@@H]1OC [DANKASTATIN A] | 0.15 µg/mL (≈ 0.307 µM) |  |  | 
2 | CCCCCC[C@@H](C)/C=C(C)/C=C/C(=O)N[C@@H]1CO[C@H]2[C@@H](Cl)C(=O)C(Cl)=C[C@@]2(O)C1 [DANKASTATIN B] | 0.16 µg/mL (≈ 0.349 µM) |  |  | 
3 | CCCCCC[C@@H](C)/C=C(C)/C=C/C(=O)N[C@H]1C[C@]2(O)C=C(Cl)C(=O)[C@](Cl)([C@@H]1O)[C@H]2OC [GYMNASTATIN Q] | 1.7 µg/mL (≈ 3.48 µM) | 15.5 µM | 3.39 µM | 6.76 µM
4 | CCCCCC[C@@H](C)/C=C(C)/C=C/C(=O)N[C@H]1C[C@]2(O)C=C(Cl)C(=O)[C@@](Cl)(C2)[C@H]1O [GYMNASTATIN R] | 2.8 µg/mL (≈ 6.11 µM) |  |  | 
